According to patent US20120142767A1, “PINE PCO ESTER COSMETIC COMPOSITION” (ACTION PIN, priority 2009, published 2012):
Where “and” joins values, the source holds several entries; their conditions need not be identical. Equal values may be shown once.

What was measured:
normal human fibroblasts [1] = test: Cytotoxic activity on a monolayer of human fibroblasts (MTT, 24 hours); conditions: positive control (SDS), concentration not given
Method: After applying the product on the cells for 24 hours, cell viability is evaluated by measuring the activity of the mitochondrial succinate dehydrogenase of living cells. This enzyme transforms MTT (3(4,5-diméthylthiazol-2-yl)-2,5-diphenyltetrazolium bromide) into blue formazan crystals. After dissolution of these crystals, a spectrophotometric read-out is performed. The measured absorbancies are proportional to the number of living cells.
The cells used are fibroblast from human skin tissue (child foreskin) in passage 1.
Six dilutions of each sample, prepared in an culture medium with 0.005% of between 60 and 0.05% of cotton oil, are tested in an amount of 5 test wells per concentration. The reference elements are tested on 5 wells.
The absorbance is measured at 540 nm. The results are expressed as a mortality percentage compared with the negative control.

IL-1α = test: Assay of IL-1α in the culture medium of UVB-irradiated reconstructed human epidermis; type: cell-based; conditions: indomethacin 3 hours before irradiation, not statistically significant
Method: A human epidermis is reconstructed in vitro in culture inserts. A paper filter disc on which the substance to be tested (preventive treatment) is deposited on the “stratum corneum”. After 24 hours, it is irradiated by UVBs and then the substance to be tested (curative treatment) is again applied. an assay of IL-1α, a pro-inflammatory mediator in the culture medium, […] 3 series of substance to be tested (5, 50 and 500 μg/mL) each consisting of 3 epidermises (to be irradiated). Next, the paper filter disks are carefully withdrawn and all the series are irradiated with UVBs (0.6 J/cm^2) (Spectroline model X-15N/F, λ=312 nm) except for the series corresponding to the absolute negative control and to the solvent control. The curative treatment is then applied as described above for the preventive treatment over a period of 24 hours, except for the positive control series 2 (indomethacin). The assay of IL-1α is carried out in the sampled culture media (n=3), diluted to 1/10th and to 1/20th according to the procedure described in the assay kit.

[2] = tested on: reconstructed human epidermis; test: Cytotoxicity (MTT) on reconstructed human epidermis irradiated by UVBs; type: cell-based; conditions: for AU (MTT): 3 epidermises and mean ± SD
Method: A human epidermis is reconstructed in vitro in culture inserts. A paper filter disc on which the substance to be tested (preventive treatment) is deposited on the “stratum corneum”. After 24 hours, it is irradiated by UVBs and then the substance to be tested (curative treatment) is again applied. a study of cytoxicity (MTT), The keratinocytes sites are sown at a density of 100×10^3 cells/cm^2 in inserts, the bottom of which consists of a polycarbonate membrane (porosity 0.4 μm-1 cm^2). […] 3 series of substance to be tested (5, 50 and 500 μg/mL) each consisting of 3 epidermises (to be irradiated). Next, the paper filter disks are carefully withdrawn and all the series are irradiated with UVBs (0.6 J/cm^2) (Spectroline model X-15N/F, λ=312 nm) except for the series corresponding to the absolute negative control and to the solvent control. The curative treatment is then applied as described above for the preventive treatment over a period of 24 hours, except for the positive control series 2 (indomethacin). The MTT test is carried out according to the conditions described in the publications: […]. and Berg K. Re-examination and further development of a precise and rapid dye method for measuring cell growth/cell kill. J. Immunol. Methods. 1989, 119, 203; and Mosmann T., Rapid colorimetric assay for cellular growth and survival: Application to proliferation and cytotoxic assays, J. Immunol. Methods. 1983, 65, 55-63. At the end of the selected incubation time, the Whatman paper disk is carefully picked up, the <<stratum corneum>> is rinsed and the porous membrane bearing the epidermal layer is detached from the insert with a bistoury. The culture medium are used for assaying IL-1α and MDA. […] For each layer, 200 μL of the obtained solution are pipeted into an 96 well plate for carrying out spectrometry with a plate reader (FL600-BIO-TEK) at λ=540 nm.

normal human fibroblasts [3] = test: Synthesis of collagen by human fibroblasts (Sircol assay); type: cell-based; parameters: stimulation of collagen at the cell matrix: dose or concentration left out as unconfirmed
Method: The goal of this study is to evaluate the effect of the test element on the synthesis of collagen after 24-hour contact with a monolayer of normal human fibroblasts.
The cells used are fibroblasts from a human child skin tissue (child) on passage 2.
The cells are sown with 50,000 cells/cm^2. After 24 hours of culture, 37° C., 5% CO2, they are incubated with the product under investigation and the reference element for 24 hours in a 1% FCS medium.
The collagen is assayed in the extra cellular matrix and in the culture medium by means of the assay box Sircol, Biocolor Ltd, Ireland, according to the procedure described in the box.
The assay is carried out with the red colouring agent Sirius (Direct Red 80) which has specific affinity for the trip helix structure (Gly-X-Y)n of native collagen.
The absorbance of the dye-collagen complex is read out with the spectrophotometer at 540 nm.
A standard curve is produced between 0 and 50 μg/mL of collagen of type I.
The collagen concentration is expressed in pg of collagen /ml/U MTT in the extra cellular matrix and in the culture medium.

MDA (malonaldehyde) = test: Assay of MDA (lipid peroxidation) in the culture medium of UVB-irradiated reconstructed human epidermis; type: cell-based; conditions: for MDA / MDA (μM/AU MTT): vitamin E 200 μg/mL + UVB, 3 epidermises and mean ± SD
Method: A human epidermis is reconstructed in vitro in culture inserts. A paper filter disc on which the substance to be tested (preventive treatment) is deposited on the “stratum corneum”. After 24 hours, it is irradiated by UVBs and then the substance to be tested (curative treatment) is again applied. an assay of MDA (malonaldehyde) (a terminal product formed during the lipid peroxidation process induced by the formation of radical species, or species activated by oxygen). […] 3 series of substance to be tested (5, 50 and 500 μg/mL) each consisting of 3 epidermises (to be irradiated). Next, the paper filter disks are carefully withdrawn and all the series are irradiated with UVBs (0.6 J/cm^2) (Spectroline model X-15N/F, λ=312 nm) except for the series corresponding to the absolute negative control and to the solvent control. The curative treatment is then applied as described above for the preventive treatment over a period of 24 hours, except for the positive control series 2 (indomethacin). […] dilutions are carried out between 0.1 and 10 μM (0.1-1-2.5-5 and 10 μM). 500 μL of culture medium (or 500 μL of a standard range) are energetically mixed in a vortex mixer, with 1 mL of a <<TCA, TBA, HCl>> solution ([…] of TCA trichloroacetic acid, 0.375% (w/v) of TBA (2-thiobarbituric acid), 0.25 M of HCl) (heated for 15 minutes at 100° C. in order to dissolve the TBA, and then left to cool). The mixture is incubated for 15 minutes at 100° C. and the OD is measured at λ=535 nm against a blank formed with the <<TCA, TBA, HCl>> solution.

CCCCCCCCCCCCOS(=O)(=O)[O-].[Na+] [Positive control, SDS]
UA MTT (normal human fibroblasts [1]): 0.065 UA

COc1ccc2c(c1)c(CC(=O)O)c(C)n2C(=O)c1ccc(Cl)cc1 [Indomethacin, indomethacin]
inhibition of synthesis and secretion of IL-1α in the culture medium (IL-1α): −20%
AU (MTT) ([2]; indomethacin 10 μg/mL, 3 hours before UVB): 0.214 AU and 0.288 AU and 0.232 AU
protective effect as regards cytotoxicity ([2]; indomethacin for 3 hours before irradiation): no protective effect

TGF β1: positive control of the collagen synthesis test
stimulation of collagen at the cell matrix (normal human fibroblasts [3]; TGF β1): 88%
Assay of collagen, Cell matrix (normal human fibroblasts [3]; TGF β1 (100 ng/ml)): 9.74 μg/wells
Assay of collagen, Culture medium (normal human fibroblasts [3]; TGF β1 (100 ng/ml)): 11.36 μg/wells
Assay of collagen, TOTAL (normal human fibroblasts [3]; TGF β1 (100 ng/ml)): 21.09 μg/wells
Collagen ratio, Cell matrix (normal human fibroblasts [3]; TGF β1 (100 ng/ml)): 10.42 μg/wells/U MTT
Collagen ratio, Culture medium (normal human fibroblasts [3]; TGF β1 (100 ng/ml)): 12.15 μg/wells/U MTT
Collagen ratio, TOTAL (normal human fibroblasts [3]; TGF β1 (100 ng/ml)): 22.57 μg/wells/U MTT
Stimulation of collagen excreted into the culture medium (normal human fibroblasts [3]; TGF β1 (100 ng/ml)): 12%
Stimulation of collagen produced in the cell matrix (normal human fibroblasts [3]; TGF β1 (100 ng/ml)): 88%
Stimulation of the synthesis of total collagen (normal human fibroblasts [3]; TGF β1 (100 ng/ml)): 38%
stimulation of total synthesis of collagen (normal human fibroblasts [3]; TGF β1 at 10 μg/mL): 38%

vitamin E
MDA (MDA (malonaldehyde)): 0.422 µM and 0.423 µM and 0.484 µM
MDA (μM/AU MTT) (MDA (malonaldehyde)): 1.715 μM/AU MTT and 1.147 μM/AU MTT and 1.359 μM/AU MTT
MDA (MDA (malonaldehyde); mean ± SD of three epidermises): 0.443 ± 0.035 µM
MDA (μM/AU MTT) (MDA (malonaldehyde); mean ± SD of three epidermises): 1.407 ± 0.287 μM/AU MTT
increase in the MDA level (MDA (malonaldehyde); vitamin E before and after irradiation, with respect to the non-irradiated absolute negative control, P<0.05): 58%
cytotoxic effect [2]: 13%
AU (MTT) ([2]; vitamin E 200 μg/mL + UVB): 0.246 AU and 0.369 AU and 0.356 AU
